# Results: patent US5855905A, “Compound preparation for the treatment of hypogonadal men and men with hypophyseal diseases” (priority 1996, dated 1999)
# Key:
# [1] = Pharmacokinetic behaviour of DHT (patch) in combination with estriol gel, transdermal, 18 healthy young male test persons; conditions: human, in vivo, topical or ocular
# Method: Pharmacokinetic Behaviour of Dihydrotestosterone (DHT) in Combination with Estriol Gel
# In a randomized study, the pharmacokinetic behaviour of DHT and estriol after transdermal application was examined in 18 healthy young male test persons.
# The DHT patch contains 150 mg of the active ingredient and was left on the test persons' skin for 24 hours. This galenic form releases 6 mg of DHT per day.
# The estriol gel contains 5 mg of active ingredient in 0.5 g of gel. This gel formulation was applied one time to 150 cm^2 of skin (forearm).
# For analysis, 12 blood samples were taken from each test person after the application over a period of 48 hours.
# [2] = system: endogenic testosterone production; conditions: cited from earlier work; for inhibition of endogenic testosterone production: Oettel 1993
# [3] = 5α-dihydrotestosterone vs testosterone; cited from earlier work
# [4] = Pharmacokinetic behaviour of mesterolone in combination with estradiol valerate, single oral application, 24 healthy young male test persons; conditions: human, in vivo
# Method: Pharmacokinetic Behaviour of Mesterolone in Combination with Estradiol Valerate (EV)
# In a randomized study, the kinetic behaviour of mesterolone (25 mg tablet) in combination with EV (1 mg lozenge) after a single oral application was examined in 24 healthy young male test persons.
# Each test person was administered mesterolone and EV after a monitored fasting period of 12 hours. After the application, 18 blood samples were taken from each test person over a period of 60 hours.
# hypogonadal men = assay: Clinical study in 23 hypogonadal men: clinical findings (efficacy and side effects)
# [5] = Clinical study in hypogonadal men: serum hormone levels
# [6] = system: cholesterol, lipoprotein and lipase levels; conditions: testosterone esters; cited from earlier work
# [7] = cited from earlier work
# [8] = mesterolone 25 mg tablet + EV 1 mg lozenge, single oral
structure (smiles),measurement,setting,value
"C[C@]12CCC(=O)C[C@@H]1CC[C@@H]1[C@@H]2CC[C@]2(C)[C@@H](O)CC[C@@H]12 [DHT, 5α-dihydrotestosterone]",Cmax,[1]; 150 mg,4.51 ± 1.23 ng/mL
same,inhibition of endogenic testosterone production,[2],not been observed
same,activity relative to testosterone,[3],about twice as active as testosterone
"C[C@]12CC[C@@H]3c4ccc(O)cc4CC[C@H]3[C@@H]1CC[C@@H]2O [estradiol, 17β-estradiol]",inhibition of endogenic testosterone production,[2],not been observed
C[C@]12CC[C@@H]3c4ccc(O)cc4CC[C@H]3[C@@H]1C[C@@H](O)[C@@H]2O [estriol],Cmax,[1]; 5 mg,0.00882 ± 0.00254 ng/mL
C[C@H]1CC(=O)C[C@@H]2CC[C@H]3[C@@H]4CC[C@H](O)[C@@]4(C)CC[C@@H]3[C@]21C [mesterolone],concentration at 60 h,[4]; 60 h after single oral mesterolone 25 mg + EV 1 mg,0.48 ng/mL
same,Cmax,[4]; [8],6.9 ng/mL
same,Tmax,[4]; [8],8.9 h
same,half-life,[4]; [8],13.2 h
same,AUC at 60 h,"[4]; mesterolone 25 mg tablet + EV 1 mg lozenge, single oral, 60 h",177 ng·h/mL
same,inhibition of endogenic testosterone production,[2],not been observed
CCCCCCC(=O)O[C@H]1CC[C@H]2[C@@H]3CCC4=CC(=O)CC[C@]4(C)[C@H]3CC[C@]12C [testosterone enanthate],gynaecomastia,hypogonadal men; 12 months,Five out of 12
same,increase in the size of the prostatic glands / prostatic hyperplasia,hypogonadal men; 12 months,could not be detected
same,pelage increase,hypogonadal men; 12 months,All men experienced a pelage increase
same,"prostate-specific antigen (PSA), change",hypogonadal men; 12 months,slightly up in all patients
same,volume/weight of testicles,hypogonadal men; 12 months,the volume of their testicles got smaller
same,Collagen depletion,hypogonadal men; Arm 1,not detected
same,"thickening of the skin, increase in water retention, tension and elasticity of the tissue",hypogonadal men; Arm 1,"All participants in the study showed a thickening of the skin, an increase in water retention, and an improvement of the tension and elasticity of the tissue"
same,improvement of the morning erection,"hypogonadal men; Arm 1, 12 months",Nine out of 12
same,patients free of complaints,"hypogonadal men; Arm 1, n=12",Nine
same,increased susceptibility to acne / development of acne,"hypogonadal men; Arm 1 after 4 months of treatment, Arm 2 12 months",Seven of the 12
same,voice pitch / voice change,"hypogonadal men; Arm 1 after 4 months, Arm 2 12 months",voice pitch of all men lowered towards a bass tone
same,increase in penis size,"hypogonadal men; Arm 1 n=12, Arm 2 n=11, 12 months",11 men/patients
same,bone density,hypogonadal men; after 6 months of treatment,All patients showed an apparent increase in bone density
same,symptoms of andropause,"hypogonadal men; hot flashing, exhaustion, weakness of concentration, reduced efficiency, disgruntlement, disturbances of libido and potency",became less frequent
same,LH levels in the serum / LH synthesis,[5]; 12 months,reduced in the serum of all participants
same,maximum values compared with testosterone levels in healthy men,"[5]; Arm 1, 250 mg i.m.",significant increase
same,cumulation,"[5]; Arm 1, testosterone, subsequent applications",no cumulation
same,period of reversible inhibition of endogenic testosterone production,[2]; patients with working gonadal testosterone biosynthesis (Humpel and Oettel 1994),about 2 weeks
same,effect on HDL cholesterol,[6],can cause a minor suppression
same,effect on total and LDL cholesterol levels,[6],only have a minor effect
C[C@]12CC[C@H]3[C@@H](CCC4=CC(=O)CC[C@@]43C)[C@@H]1CC[C@@H]2O [testosterone],estradiol levels in the plasma,[7]; intramuscular injection (Tenover 1992),doubled
same,increase of estradiol levels in the plasma,[7]; percutaneous application (Kuhn 1986),70%
